Measured values taken from patent US20070225213A1, “Nucleic acid carriers for delivery of therapeutic agents” (priority 2006, published 2007).

System: BHK21
Test: Cell uptake by MTN fluorescence EX620/EM680 (Examples 10 and 13, EX051605)
Assay type: cell-based, hamster
Settings: 10% w/w loading in DNA
Experimental: Materials: HSGDNA, MTN, ODNAS1116 (phosphorothioated, single stranded DNA, and Beta-cyclodextrin polymer (BCD-SBE, KKBIOMED Inc.) were previously prepared in water at 10 mg/ml, 1 mg/ml, 0.95 mg/ml, and 10 mg/ml respectively.
Procedure: For NAC-MTN, combined 37 ul HSGDNA (herring genomic DNA, Promega Inc.), 1426 ul HBSS( Hank's buffered saline, Sigma-Aldrich), with 37 ul of MTN, followed by 1500 ul 2× DMEM media to give 3 ml final and 24 uM (24 micro-molar) MTN and 10% w/w drug loading of MTN. For NAC-MTN (AR1505) combined 62 ul of HSDNA (deg. herring sperm DNA, Sigma) with 2377 ul HBSS, 61.7 ul MTN, 2500 ul 2× media to give 5 ml final and 24 uM MTN and 10% w/w drug loading of MTN to HSDNA. […]
Plate#1 Media was aspirated and cells treated with 100 ul of either NAC-MTN, CD-MTN, or MTN at 24 uM MTN final or 12.3 ug/ml MTN in all samples. Samples containing MTN were incubated 4 hours, removed, and fluorescence taken at EX620/EM680. […]
Samples were incubated 4 hours, removed, and MTN fluorescence taken at EX620/EM680. […] Average MTN fluorescence was averaged from 6 wells. For each cell type, MTN fluorescence was highest in MTN treated cells, followed by CD-MTN, and lowest in NAC-MTN. […]
PLATE#2: Dispensed 50 ul from source plate into plate #2 to give 150 ul final vol 4.1 ug/ml, 8 uMfinal per well, pre-read fluorescence w samples (bkgd) incubated 5 hr, removed, replaced w/ media, read fluor. […]

O=C1c2c(O)ccc(O)c2C(=O)c2c(NCCNCCO)ccc(NCCNCCO)c21 [MTN, mitoxantrone]
% reduction in fluorescence relative to MTN alone (MTN = 0%) (Plate#1, 24 uM MTN, 4 hours): 0%
% reduction in fluorescence relative to MTN alone (MTN = 0%) (Plate#2, 8 uM MTN): 0%
